In the data set the test system is Yap1 mRNA. Put plainly: Antisense inhibition of human Yap1 in A-431 cells by cEt gapmers, single dose (Example 2, RTS4814). Type of data set: cell-based. The method, boiled down: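 A-431 cells (5,000/well) took up 2,000 nM 3-10-3 cEt gapmer by free uptake for ~48 h. Yap1 mRNA was quantified by qRT-PCR with primer probe set RTS4814, normalized to RIBOGREEN total RNA, and reported as % of untreated control.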

Where [1] appears, read: Table 5, A-431 cells, 5,000 cells per well, free uptake, 2,000 nM modified oligonucleotide, approx. 48 hours, RTS4814, normalized to RIBOGREEN, Yap1 mRNA relative to untreated control cells.
Setting [2] is: Table 20, Yap1 mRNA, percent of untreated control, 3-10-3 cEt gapmers targeting SEQ ID NO.: 1 and 2.
Setting [3] is: Yap1 mRNA as percent of untreated control, A-431 cells, 3-10-3 cEt gapmers targeting SEQ ID NO.: 1, and 2, Table 30.
Where [4] appears, read: Table 22, Yap1 mRNA as percent of untreated control, 3-10-3 cEt gapmers, single dose.
[5] abbreviates: Table 18, A-431 cells, 5,000 cells per well, free uptake, 2,000 nM modified oligonucleotide, approx. 48 hours, RTS4814, normalized to RIBOGREEN, Yap1 mRNA as percent of untreated control.
The mark [6] stands for this setting: Table 24, Yap1 mRNA as percent of untreated control, 3-10-3 cEt gapmers targeting SEQ ID NO.: 1, and 2.
The mark [7] stands for this setting: Table 23, Yap1 mRNA as percent of untreated control, 3-10-3 cEt gapmers, single dose.
The mark [8] stands for this setting: Table 19, A-431 cells, 5,000 cells per well, free uptake, 2,000 nM modified oligonucleotide, approx. 48 hours, RTS4814, normalized to RIBOGREEN, Yap1 mRNA as percent of untreated control.
The mark [9] stands for this setting: Table 6, A-431 cells, 5,000 cells per well, free uptake, 2,000 nM modified oligonucleotide, approx. 48 hours, RTS4814, normalized to RIBOGREEN, Yap1 mRNA relative to untreated control cells.
Where [10] appears, read: A-431 cells, 5,000 cells per well, free uptake, 2,000 nM modified oligonucleotide, approx. 48 hours, RTS4814, normalized to RIBOGREEN, Table 4, asterisk (*) = targets amplicon region of primer probe set.
[11] abbreviates: Table 25, Yap1 mRNA as percent of untreated control, 3-10-3 cEt gapmers targeting SEQ ID NO.: 1, and 2.

Strand notation (5' to 3'): a small letter for the sugar, then the base; units joined by * are phosphorothioate-linked, units joined directly phosphodiester-linked; [ ] holds rarer units or linkages, { } end groups; capitals alone tell only the bases. k = constrained ethyl (cEt); [5mC] = 5-methylcytosine; d = 2'-deoxy (DNA)

With “1074770 (kA*kT*k[5mC]*dT*dT*dA*dT*d[5mC]*d[5mC]*d[5mC]*dA*dA*dT*kG*k[5mC]*kT; antisense) [compound 1074770]”, the “YAP1 (% UTC)” value (Table 32, Yap1 mRNA, percent of untreated control, 3-10-3 cEt gapmers targeting SEQ ID NO.: 1, and 2) is 15 % UTC.

Regarding “716530 (antisense kA*k[5mC]*kA*dT*d[5mC]*dA*dA*dG*dG*d[5mC]*dT*dA*dT*kG*kA*kT) [Compound 716530]”, the “YAP1 (% UTC)” value under setting [1] turned out to be 83 % UTC.

As to “1074502 (kA*kA*k[5mC]*dT*dA*d[5mC]*dA*dA*dT*dA*dA*d[5mC]*d[5mC]*kA*kT*k[5mC]; antisense) [Compound 1074502]”, the “YAP1 (% UTC)” value under setting [2] was 31 % UTC.

In the case of “1074416 (k[5mC]*kT*kT*dT*dA*dG*dA*dG*d[5mC]*d[5mC]*dA*dA*d[5mC]*kT*kG*kT; antisense) [compound 1074416]”, the “YAP1 (% UTC)” value under setting [3] worked out at 9 % UTC.

With “1076488 (antisense kG*k[5mC]*k[5mC]*dA*dA*dT*dA*dA*dG*dA*dT*dA*dA*kG*kA*kA) [Compound 1076488]”, the “YAP1 (% UTC)” value under setting [4] was 19 % UTC.

For the substance “716476 (kG*kA*kA*d[5mC]*dT*dA*d[5mC]*dA*dA*dA*d[5mC]*dT*dA*kG*kA*kA; antisense) [Compound 716476]”, under setting [1], the “YAP1 (% UTC)” value is 91 % UTC.

“1074980 (antisense kT*kA*kT*dT*dG*d[5mC]*d[5mC]*dA*dG*dT*dT*d[5mC]*dT*kT*kG*kT) [Compound 1074980]”: the “YAP1 (% UTC)” value under setting [5] was 26 % UTC.

Regarding “716533 (antisense k[5mC]*kA*kA*dT*dT*d[5mC]*dA*dA*dG*dA*dA*dT*dA*k[5mC]*k[5mC]*k[5mC]) [Compound 716533]”, the “YAP1 (% UTC)” value under setting [1] is given as 64 % UTC.

As to “1075498 (k[5mC]*kA*kT*dT*dA*dT*dA*dT*dA*dA*dT*dG*d[5mC]*kA*kG*kG; antisense) [Compound 1075498]”, the “YAP1 (% UTC)” value under setting [6] was found to be 9 % UTC.

Turning to “1075849 (k[5mC]*kT*kA*dG*dA*dA*d[5mC]*dA*d[5mC]*dG*d[5mC]*dT*dG*kA*kT*kG; antisense) [Compound 1075849]”, under setting [7], the “YAP1 (% UTC)” value is given as 55 % UTC.

As to “1075690 (k[5mC]*kG*kT*dT*dA*dA*d[5mC]*dA*dA*d[5mC]*dT*dA*dT*kA*k[5mC]*kA; antisense) [Compound 1075690]”, the “YAP1 (% UTC)” value under setting [6] is on record as 33 % UTC.

Consider “1076261 (k[5mC]*k[5mC]*k[5mC]*d[5mC]*dA*dA*d[5mC]*dA*dA*dG*dT*dT*d[5mC]*k[5mC]*kT*kG; antisense) [Compound 1076261]”, for which, under setting [8], the “YAP1 (% UTC)” value is 39 % UTC.

“716552 (kT*kT*kT*d[5mC]*dT*d[5mC]*dA*dG*dA*dT*dG*dT*dA*k[5mC]*k[5mC]*kA; antisense) [Compound 716552]”: the “YAP1 (% UTC)” value under setting [9] came out at 53 % UTC.

In the case of “1076484 (antisense kG*kA*kA*dA*d[5mC]*dG*dG*dG*dA*dA*dA*dT*d[5mC]*kA*kT*kA) [Compound 1076484]”, the “YAP1 (% UTC)” value under setting [5] worked out at 10 % UTC.

Consider “1076359 (kA*kT*kT*dT*dA*dT*d[5mC]*d[5mC]*dT*dA*dG*dT*dT*kA*k[5mC]*k[5mC]; antisense) [Compound 1076359]”, for which, under “Table 21, Yap1 mRNA, percent of untreated control, 3-10-3 cEt gapmers targeting SEQ ID NO.: 1 and 2”, the “YAP1 (% UTC)” value amounted to 29 % UTC.

Take “716430 (kT*kA*kA*d[5mC]*dT*dG*dG*dG*d[5mC]*dA*dA*dA*dA*kG*kG*kA; antisense) [Compound 716430]”: the “YAP1 (% UTC)” value under setting [10] is 28 % UTC.

On to “1075947 (k[5mC]*kT*kT*dT*dA*dT*dA*dG*dG*dA*dA*dT*dA*kG*kA*kG; antisense) [Compound 1075947]”, for which the “YAP1 (% UTC)” value under setting [11] was 95 % UTC.

Consider “1074857 (antisense kA*k[5mC]*kA*dT*dT*dG*dG*dT*dA*d[5mC]*dT*dA*dT*kA*kT*kA) [Compound 1074857]”, for which the “YAP1 (% UTC)” value under setting [7] is reported as 25 % UTC.

In the case of “1076392 (kT*kA*kT*dT*dA*dA*dT*d[5mC]*dA*dA*dA*dT*dA*kG*kG*kG; antisense) [Compound 1076392]”, the “YAP1 (% UTC)” value under setting [4] is 64 % UTC.

In the case of “1076363 (k[5mC]*kA*kT*dA*dA*dA*dA*dG*dT*d[5mC]*d[5mC]*dA*d[5mC]*kT*kA*kA; antisense) [Compound 1076363]”, the “YAP1 (% UTC)” value under setting [11] was determined as 72 % UTC.

Consider “1075720 (k[5mC]*kT*kT*dT*dA*d[5mC]*dT*dA*d[5mC]*dA*dT*dA*dT*kA*kG*k[5mC]; antisense) [Compound 1075720]”, for which the “YAP1 (% UTC)” value under setting [4] stood at 47 % UTC.

“716536 (antisense kA*kA*kG*dT*dA*dG*dA*dT*d[5mC]*dT*dA*dA*dG*kA*kA*kG) [Compound 716536]”: the “YAP1 (% UTC)” value under setting [1] turned out to be 94 % UTC.

As for “1075923 (antisense kT*kT*kT*dA*dA*dT*dA*d[5mC]*dT*d[5mC]*dT*d[5mC]*dT*kG*kG*kG) [compound 1075923]”, the “YAP1 (% UTC)” value (Table 33, Yap1 mRNA, percent of untreated control, 3-10-3 cEt gapmers targeting SEQ ID NO.: 1, and 2) was 42 % UTC.

For the substance “716497 (kA*kG*k[5mC]*dA*dG*d[5mC]*dT*dT*dT*dT*dG*d[5mC]*d[5mC]*kA*kG*kG; antisense) [Compound 716497]”, under setting [1], the “YAP1 (% UTC)” value is reported as 65 % UTC.

For “716535 (antisense k[5mC]*k[5mC]*kT*dG*dA*d[5mC]*dT*dG*dA*dA*dA*dA*dT*kA*kA*k[5mC]) [Compound 716535]”, the “YAP1 (% UTC)” value under setting [10] is on record as 86 % UTC.

As to “1076102 (k[5mC]*kT*kT*dA*dA*d[5mC]*dA*dA*dA*dT*d[5mC]*dA*dG*k[5mC]*k[5mC]*k[5mC]; antisense) [Compound 1076102]”, the “YAP1 (% UTC)” value under setting [2] is on record as 32 % UTC.

With “1075621 (kG*kA*kT*dT*dA*dA*d[5mC]*dA*dT*dT*dG*dA*dT*kA*k[5mC]*kT; antisense) [Compound 1075621]”, the “YAP1 (% UTC)” value under setting [8] is reported as 61 % UTC.

For the substance “1076389 (kA*kT*k[5mC]*dG*dA*dA*dA*dT*dA*dT*dT*d[5mC]*dG*kA*kG*kA; antisense) [Compound 1076389]”, the “YAP1 (% UTC)” value under setting [8] is given as 76 % UTC.

Take “1076548 (antisense k[5mC]*kA*k[5mC]*d[5mC]*dA*dA*d[5mC]*d[5mC]*dT*dG*dT*dT*dA*kA*kG*kG) [Compound 1076548]”: the “YAP1 (% UTC)” value under setting [5] stood at 106 % UTC.

Consider “1076388 (kG*kA*kA*dA*dT*dA*dT*dT*d[5mC]*dG*dA*dG*dA*kA*kG*kA; antisense) [Compound 1076388]”, for which, under setting [5], the “YAP1 (% UTC)” value is given as 6 % UTC.

Turning to “1075658 (kG*kT*kA*dA*dA*dA*dA*dA*d[5mC]*dG*dG*dT*dT*kT*kT*kT; antisense) [Compound 1075658]”, the “YAP1 (% UTC)” value under setting [6] was found to be 103 % UTC.

As to “1075370 (k[5mC]*kT*kT*dA*d[5mC]*dG*dA*dA*dT*d[5mC]*dA*d[5mC]*dA*kT*kA*kT; antisense) [Compound 1075370]”, under setting [6], the “YAP1 (% UTC)” value stood at 32 % UTC.

With “1074666 (antisense k[5mC]*kA*kT*dA*dT*dA*d[5mC]*d[5mC]*d[5mC]*dA*dA*dT*dT*kT*kT*kG) [Compound 1074666]”, the “YAP1 (% UTC)” value under setting [6] is listed as 16 % UTC.

“716399 (kA*kA*kT*dT*dT*dG*d[5mC]*dT*dG*dT*dG*d[5mC]*dT*kG*kG*kG; antisense) [Compound 716399]”: the “YAP1 (% UTC)” value under setting [9] turned out to be 40 % UTC.

For “716547 (kG*kG*kT*dA*dT*dG*dA*dA*dT*dT*d[5mC]*dT*dG*kA*kA*kT; antisense) [Compound 716547]”, the “YAP1 (% UTC)” value under setting [10] was 44 % UTC.

Turning to “1075953 (kA*kA*k[5mC]*d[5mC]*dT*dA*dT*dA*dT*dA*d[5mC]*d[5mC]*dT*kG*k[5mC]*kT; antisense) [compound 1075953]”, the “YAP1 (% UTC)” value (Yap1 mRNA as percent of untreated control, A-431 cells, 3-10-3 cEt gapmers targeting SEQ ID NO.: 1, and 2, Table 31) was 36 % UTC.

For “1075304 (k[5mC]*kA*k[5mC]*dG*dG*dG*dT*dA*d[5mC]*d[5mC]*dA*dG*dA*kA*kA*kA; antisense) [Compound 1075304]”, the “YAP1 (% UTC)” value under setting [4] was 50 % UTC.

In the case of “1075109 (antisense kA*k[5mC]*kT*dA*dA*dA*dA*dA*d[5mC]*dA*dT*dT*dG*kT*kG*kG) [Compound 1075109]”, the “YAP1 (% UTC)” value under setting [8] stood at 71 % UTC.

On to “1075529 (kA*kA*kA*dT*d[5mC]*dG*dA*dA*dG*dG*dG*d[5mC]*dA*kA*kA*k[5mC]; antisense) [Compound 1075529]”, for which, under setting [7], the “YAP1 (% UTC)” value is 84 % UTC.

On to “1075012 (antisense k[5mC]*kT*kA*dT*dT*dG*dG*dA*dA*dT*dG*dT*dT*kA*kA*k[5mC]) [Compound 1075012]”, for which, under setting [5], the “YAP1 (% UTC)” value was 119 % UTC.

For “1075568 (kT*kT*kA*dT*dT*dT*dA*dA*dG*dT*dT*dG*dG*kG*kA*kG; antisense) [compound 1075568]”, the “YAP1 (% UTC)” value under setting [3] is recorded as 23 % UTC.

With “1076330 (kG*kA*kA*dT*dT*dA*dT*dA*d[5mC]*dT*dG*dG*d[5mC]*kT*kA*k[5mC]; antisense) [Compound 1076330]”, the “YAP1 (% UTC)” value under setting [6] was 3 % UTC.

For the substance “716544 (antisense kT*kA*k[5mC]*dT*dT*dA*dA*d[5mC]*dA*d[5mC]*dA*dG*d[5mC]*kA*kA*k[5mC]) [Compound 716544]”, the “YAP1 (% UTC)” value under setting [10] is recorded as 71 % UTC.

The record behind these values is patent US11214803B2, “Modulators of YAP1 expression” (Ionis Pharmaceuticals, Inc., priority 2019, dated 2022).
